{"source": "paper PMC12123601", "about": "“Light-Induced, Lysine-Targeting Irreversible Covalent Inhibition of the Human Oxygen Sensing Hydroxylase Factor Inhibiting HIF (FIH)” (Journal of the American Chemical Society, 2025)", "key": {"[1]": {"target": "FIH (Homo sapiens, UniProt Q9NWT6)", "sequence (Q9NWT6 whole entry)": "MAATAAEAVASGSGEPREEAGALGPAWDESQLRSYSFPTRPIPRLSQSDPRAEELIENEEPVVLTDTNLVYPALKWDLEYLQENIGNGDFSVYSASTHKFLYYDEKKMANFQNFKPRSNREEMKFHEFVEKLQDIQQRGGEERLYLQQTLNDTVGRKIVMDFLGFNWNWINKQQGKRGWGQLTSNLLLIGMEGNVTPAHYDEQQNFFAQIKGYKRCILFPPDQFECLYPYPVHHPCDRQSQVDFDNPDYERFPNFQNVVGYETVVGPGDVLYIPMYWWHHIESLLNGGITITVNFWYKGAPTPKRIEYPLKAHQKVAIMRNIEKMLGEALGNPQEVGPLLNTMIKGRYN", "assay": "O-phenylenediamine (OPD) 2OG derivatization turnover assay (remaining 2OG in FIH hydroxylation system)", "assay_type": "biochemical", "parameters": "Concentration of remaining 2OG: unit: µM", "description": "To explore whether the covalent inhibitor can effectively and sustainably prevent the hydroxylation process catalyzed by FIH, the inhibitory activities against FIH were evaluated using the fluorescent O-phenylenediamine (OPD) 2OG derivatization turnover assay (Figure S9).\nFigure S9. Schematic of the O-phenylenediamine (OPD) fluorescent derivative assay6. The assay monitors depletion of 2OG.\n(1 picture or pasted object on this page, not shown here) […]\npET28a vectors encoding for full-length FIH with an N-terminal His6 tag or for FIH (K106A) with an N-terminal His6 tag were purchased from Nanjing Zoonbio Biotechnology. Both the FIHWT and FIHK106A protein were expressed from the respective plasmid in Escherichia coli BL21 at 20 °C for 16 h. E. coli cells were lysed and the lysate were clarified by centrifugation. His6-tagged FIHWT or FIHK106A was purified on a HisTrap affinity column (GE Healthcare) by elution with an imidazole gradient. The final purified proteins were stored in PBS buffer. […]\nKi = I50 / [1 + ([L]50 + [P]0)/Kd] […]\n3.2 O-Phenylenediamine (OPD) fluorescent derivative assay\nAssays were carried out by mixing 1 mM DTT, 0.6 mg/mL of catalase, 200 μM 2-OG, 50 mM Hepes, 200 μM HIF-1α (788-807), and inhibitors at pH 7.0 to a final volume of 44 μL and incubated at 37 °C for 5 min. At the same time, FIH enzyme and iron (prepared as 200 mM stock in 20 mM HCl and diluted with water) were mixed at room temperature for 3 min. […] The reaction was stopped by the addition of 100 μL of 0.5 M HCl. After adding 50 μL of 10 mg/mL OPD in 0.5 M HCl and heating at 95 °C for 10 min, the derivatization was achieved. Then, 50 μL of the mixture centrifugated for 5 min was made basic by adding 30 μL of 1.25 M NaOH, and then fluorescence was detected by SPARK Multi-Mode Microplate Reader (Tecan). […]\nCrystals were cryo -protected using mother liquor supplemented with 25%v/v glycerol before manual loop cryo -cooling in liquid N2.\nData for ligand -bound protein complexes were from single crystals at 100 K using Diamond Light Source (UK) beamlines. The FIH crystal structures were determined by molecular replacement (MR) using the AutoMR (PHASER) subroutine in PHENIX (version 1.18.2) based on the PDB ID: 1H2K crystal structure ."}, "[2]": {"system": "EGLN3 mRNA level in Hep3B cells", "assay": "qRT-PCR of FIH-dependent HIF target gene EGLN3 in Hep3B cells", "assay_type": "cell-based", "description": "5 […] sustainably engages with FIH and regulates the expression of FIH-dependent HIF target gene EGLN3 in Hep3B cells. (A) The CETSA assay was carried out with Hep3B cells grown in the presence of NBA-ZG-2291 (50 μM) for 12–48 h after 30 min of light activation (365 nm, 16 W). The intensity of the bands for grayscale analysis was referenced to the starting temperature (37 °C). α-Actinin was the sample loading control. n = 2; mean ± SD. […] (E) Correlation heatmap of the NBA-ZG-2291-treated group and the siFIH group by RNA-sequencing analysis. […] The relative fold change with respect to DMSO treated sample is shown (with normalization to HPRT gene levels). Mean ± SEM; n = 3. (G) TG level of NBA-ZG-2291-treated 3T3-L1-derived adipocytes. Mean ± SEM; n = 3. (H) Representative Oil Red O-stained images of the control, ZG-2291-treated, and NBA-ZG-2291-treated 3T3-L1-derived adipocytes. Scale Bar, 30 μm. P values were analyzed by two-way ANOVA comparing with the vehicle/control group (*, P < 0.05; **, P < 0.01; ***, P < 0.001, ****, P < 0.0001). See Methods (Quantitative PCR Analysis of Gene Expression) for assay details. TEXT PRINTED IN THE PICTURE: (A) no label printed: FIH: ΔTm (°C): 8.87 (Incubation time: 12 h); FIH: ΔTm (°C): 9.28 (Incubation time: 24 h); FIH: ΔTm (°C): 8.86 (Incubation time: 48 h); α-actinin: ΔTm (°C): 0.30 (Incubation time: 12 h); α-actinin: ΔTm (°C): -0.03 (Incubation time: 24 h); α-actinin: ΔTm (°C): -0.45 (Incubation time: 48 h) DOUBTS OF THE COPYIST ABOUT THIS PICTURE: Panel A: the picture prints no substance label with the ΔTm tables, so the label is left empty\nThe Egl-9 family hypoxia-inducible factor 3 gene (EGLN3, PHD3) is a HIF target gene, expression of which is negatively regulated by FIH catalysis, , potentially in a context-dependent manner. We therefore investigated the effect of the light-induced covalent inhibitor NBA-ZG-2291 on EGLN3 expression levels in Hep3B cells using ZG-2291 as a positive inhibition control. […] At a concentration of 10 μM, NBA-ZG-2291 increased EGLN3 expression by ∼2.5-fold with irradiation.\nWe also compared the time-dependent regulation of NBA-ZG-2291 on the HIF pathway with that of ZG-2291. […] This may result from the limited action time of the reversible inhibitor, perhaps due to its metabolism. The overall results provide strong evidence that the light-induced, lysine-targeting irreversible covalent inhibitor NBA-ZG-2291 can effectively and sustainably engage FIH, leading to the upregulation of FIH-dependent HIF target gene expression."}}}
{"smiles": "O=C(O)CNC(=O)c1ncc(-c2cc(-c3cccc(Cl)c3)no2)cc1O", "note": "[ZG-2291, reference compound]", "values": [{"measurement": "Concentration of remaining 2OG", "setting": "[1]; inhibitor 0.14 μM, incubation 0 min, 200 μM 2-OG at start", "result": 200.0}, {"measurement": "Concentration of remaining 2OG", "setting": "[1]; inhibitor 0.14 μM, incubation 15 min", "result": 182.9}, {"measurement": "Concentration of remaining 2OG", "setting": "[1]; inhibitor 0.14 μM, incubation 30 min", "result": 173.3}, {"measurement": "Concentration of remaining 2OG", "setting": "[1]; inhibitor 0.14 μM, incubation 1 h", "result": 163.0}, {"measurement": "Concentration of remaining 2OG", "setting": "[1]; inhibitor 0.14 μM, incubation 4 h", "result": 140.5}, {"measurement": "Concentration of remaining 2OG", "setting": "[1]; inhibitor 0.41 μM, incubation 0 min, 200 μM 2-OG at start", "result": 200.0}, {"measurement": "Concentration of remaining 2OG", "setting": "[1]; inhibitor 0.41 μM, incubation 15 min", "result": 184.2}, {"measurement": "Concentration of remaining 2OG", "setting": "[1]; inhibitor 0.41 μM, incubation 30 min", "result": 176.4}, {"measurement": "Concentration of remaining 2OG", "setting": "[1]; inhibitor 0.41 μM, incubation 1 h", "result": 162.3}, {"measurement": "Concentration of remaining 2OG", "setting": "[1]; inhibitor 0.41 μM, incubation 4 h", "result": 153.7}, {"measurement": "Concentration of remaining 2OG", "setting": "[1]; inhibitor 1.23 μM, incubation 0 min, 200 μM 2-OG at start", "result": 200.0}, {"measurement": "Concentration of remaining 2OG", "setting": "[1]; inhibitor 1.23 μM, incubation 15 min", "result": 190.8}, {"measurement": "Concentration of remaining 2OG", "setting": "[1]; inhibitor 1.23 μM, incubation 30 min", "result": 184.4}, {"measurement": "Concentration of remaining 2OG", "setting": "[1]; inhibitor 1.23 μM, incubation 1 h", "result": 172.8}, {"measurement": "Concentration of remaining 2OG", "setting": "[1]; inhibitor 1.23 μM, incubation 4 h", "result": 159.4}, {"measurement": "Concentration of remaining 2OG", "setting": "[1]; inhibitor 3.70 μM, incubation 0 min, 200 μM 2-OG at start", "result": 200.0}, {"measurement": "Concentration of remaining 2OG", "setting": "[1]; inhibitor 3.70 μM, incubation 15 min", "result": 192.8}, {"measurement": "Concentration of remaining 2OG", "setting": "[1]; inhibitor 3.70 μM, incubation 30 min", "result": 190.8}, {"measurement": "Concentration of remaining 2OG", "setting": "[1]; inhibitor 3.70 μM, incubation 1 h", "result": 181.0}, {"measurement": "Concentration of remaining 2OG", "setting": "[1]; inhibitor 3.70 μM, incubation 4 h", "result": 167.9}, {"measurement": "Concentration of remaining 2OG", "setting": "[1]; inhibitor 11.1 μM, incubation 0 min, 200 μM 2-OG at start", "result": 200.0}, {"measurement": "Concentration of remaining 2OG", "setting": "[1]; inhibitor 11.1 μM, incubation 15 min", "result": 195.1}, {"measurement": "Concentration of remaining 2OG", "setting": "[1]; inhibitor 11.1 μM, incubation 30 min", "result": 194.6}, {"measurement": "Concentration of remaining 2OG", "setting": "[1]; inhibitor 11.1 μM, incubation 1 h", "result": 184.1}, {"measurement": "Concentration of remaining 2OG", "setting": "[1]; inhibitor 11.1 μM, incubation 4 h", "result": 175.9}, {"measurement": "Concentration of remaining 2OG", "setting": "[1]; inhibitor 33.3 μM, incubation 0 min, 200 μM 2-OG at start", "result": 200.0}, {"measurement": "Concentration of remaining 2OG", "setting": "[1]; inhibitor 33.3 μM, incubation 15 min", "result": 195.6}, {"measurement": "Concentration of remaining 2OG", "setting": "[1]; inhibitor 33.3 μM, incubation 30 min", "result": 195.3}, {"measurement": "Concentration of remaining 2OG", "setting": "[1]; inhibitor 33.3 μM, incubation 1 h", "result": 189.4}, {"measurement": "Concentration of remaining 2OG", "setting": "[1]; inhibitor 33.3 μM, incubation 4 h", "result": 181.4}, {"measurement": "Concentration of remaining 2OG", "setting": "[1]; inhibitor 100 μM, incubation 0 min, 200 μM 2-OG at start", "result": 200.0}, {"measurement": "Concentration of remaining 2OG", "setting": "[1]; inhibitor 100 μM, incubation 15 min", "result": 199.4}, {"measurement": "Concentration of remaining 2OG", "setting": "[1]; inhibitor 100 μM, incubation 30 min", "result": 197.3}, {"measurement": "Concentration of remaining 2OG", "setting": "[1]; inhibitor 100 μM, incubation 1 h", "result": 193.2}, {"measurement": "Concentration of remaining 2OG", "setting": "[1]; inhibitor 100 μM, incubation 4 h", "result": 186.6}, {"measurement": "Concentration of remaining 2OG", "setting": "[1]; inhibitor 300 μM, incubation 0 min, 200 μM 2-OG at start", "result": 200.0}, {"measurement": "Concentration of remaining 2OG", "setting": "[1]; inhibitor 300 μM, incubation 15 min", "result": 200.0}, {"measurement": "Concentration of remaining 2OG", "setting": "[1]; inhibitor 300 μM, incubation 30 min", "result": 199.1}, {"measurement": "Concentration of remaining 2OG", "setting": "[1]; inhibitor 300 μM, incubation 1 h", "result": 196.6}, {"measurement": "Concentration of remaining 2OG", "setting": "[1]; inhibitor 300 μM, incubation 4 h", "result": 193.3}, {"measurement": "Effect of irradiation on EGLN3 expression", "setting": "[2]", "result": "not affected by irradiation"}, {"measurement": "Upregulation of EGLN3 mRNA level", "setting": "[2]; 20 μM, absence of irradiation", "result": "~2.2", "unit": "fold"}, {"measurement": "EGLN3 mRNA levels versus DMSO", "setting": "[2]; after 16 h treatment", "result": "no significant difference compared to the negative control"}]}
